# Key:
# p190-BCR-ABL leukemia = assay: p190-BCR-ABL induced B-ALL murine model, osmotic pumps; format: in vivo, mice
# Source text: C57Bl/6 mice were commercially obtained (The Jackson Laboratory and Harlan Laboratories) and used as donors and/or recipients of transduction/transplantation models under a protocol approved by The Cincinnati Children's Hospital Medical Center Institutional Animal Care and Use Committee.
# After a single wash in PBS, cells were stained with anti-B220 APC-Cy7 antibody. Stained cells were washed once and analyzed by flow cytometry.
# T47D cells = assay: Cell spreading on fibronectin; format: cell-based; conditions: 0-3 μM, 30 min
# Protocol: FIG. 6: IODVA1 inhibits cell-substratum and cell-cell interactions. (A) IODVA1 impedes spreading of MCF7 and MDA-MB-231 cells on fibronectin. MCF7, T47D, and MDA-MB-231 cells were incubated on fibronectin coated coverslips for 10 min, then further incubated with the indicated concentrations of IODVA1 for 30 min in serum-free media, fixed and observed by bright field microscopy. Areas of single cells were calculated from 6 random fields (no less than 300 cells total per treatment group). Results shown are mean±s.e.m. of a single experiment and are representative of three independent experiments. (B) Effects of IODVA1 treatment on spheroid formation in MCF10A, MCF7, T47D, and MDA-MB-231 cells. […] Aggregates and spheroids were dissociated with accutase and trituration, and the number of live cells was determined by trypan blue exclusion. […]
# Applicants assessed if IODVA1 interferes with cell spreading on the extracellular matrix, an event that is also governed by the rearrangement of the actin cytoskeleton. […] No changes in the area in T47D cells were detected, although more rounded cells in the presence of IODVA1 were observed.
# For cell spreading, MDA-MB-231, MCF7 and T47D were seeded on fibronectin-coated coverslips in serum-free media. […] Six random fields were imaged under 20× objective and cell area of individual cells were quantified to assess the degree of spreading (ImageJ). […]
# [1] = test system: effector phosphorylation in empty vector expressing Ba/F3 cells; assay: Phospho-flow cytometry of effectors; format: cell-based, murine; conditions: 3 μM, 30 min
# Protocol: (§1) FIG. 13: IODVA1 decreases Rac activation and signaling. (A) Ba/F3 cells expressing p190-BCR-ABL1 were treated with IODVA1 (3 μM) as indicated and levels of active Rac (Rac-GTP) were assessed by pull-down using GST-PAK-GBD, followed by immunoblotting (upper panel) and densitometric quantification (lower panel). (B) Flow-cytometry analysis of pJNK, pS6, p4EBP, pPAK1, and pAKT of Ba/F3 cells expressing Mieg3 empty vector (light and dark blue) or p190-BCR-ABL1 (light and dark salmon) and treated with vehicle control or IODVA1 (3 μM) for 30 min. (C) Representative histogram data of the cell cycle analysis of Ba/F3 cells expressing p190-BCR-ABL and treated with vehicle control or IODVA1 (1, 3, and 10 μM) for 20 h. (D) Quantification of the average number of colonies of bone marrow wild-type (black) and Rac1^Δ/Δ+Rac2^−/− (red) p190-BCR-ABL1 leukemic cells treated with vehicle control or IODVA1 (IO1, 1 μM). ns—not significant, * p<0.05, ** p<0.01, *** p<0.001. (E) As in FIG. 13A, but cells were incubated for a fixed amount of time (1 h) at the indicated IODVA1 concentrations. (F) Ba/F3 cells expressing p190-BCR-ABL1 were treated with IODVA1 (3 μM) and lysed at the indicated times. Cell lysates were separated on SDS-PAGE and immunoblotted for pPAK(T423), pBAD(S136), and BAD. (G) Ba/F3 cells expressing p190-BCR-ABL1 were treated with IODVA1 (3 μM) and levels of active Cdc42 (Cdc42-GTP) and Rho (Rho-GTP) were assessed by pull-down at the indicated times using GST-PAK-GBD and GST-Rhotekin respectively, followed by immunoblotting (left panel) and densitometric quantification (right panel). (H) Morphology of GFP^+ leukemic colonies (left panel). Western blot analysis of Rac1 and Rac2 protein expression in Rac1^Δ/Δ+Rac2^−/− cells post poly-I:C injections (right panel). (I) Intrinsic (blue line) and p50GAP-stimulated GTP-hydrolysis reaction in the presence (red line) or absence (black line) of IODVA1. (J) Sedimentation assay of liposomal Rac1-GDP in the presence of IODVA1 (2 μM). Rac1 was visualized by immunoblotting from pellet (p) and soluble (s) fractions. (K) Stopped-flow measurement of GDI (10 μM) interaction with fluorescently-labelled Rac1 in the absence (black line) or presence (orange line) of IODVA1.
# (§2) Expression of BCR-ABL1 increases the phosphorylation levels of JNK, S6, 4EBP, PAK, and AKT by more than 2.5 times (FIG. 13B). IODVA1 decreases the phosphorylation levels of JNK by 1.8 (p=0.015), S6 by 1.5 (p=0.05), 4EBP by 3.0 (p=0.009), and PAK by 6.1 (p=0.004) fold, respectively. […] The decrease in JNK, S6, and 4EBP activity in IODVA1-treated Ba/F3 cells mirrors the decrease observed in LDBM cells from IODVA1-treated p210-T315I mice in pharmacodynamics studies (FIG. 12C). Together, our in vitro and in vivo data are consistent with IODVA1 targeting activation of Rac and its downstream signaling.
# [2] = test system: pJNK, pS6, p4EBP, pPAK1, pAKT in p190-BCR-ABL expressing Ba/F3 cells; assay: Phospho-flow cytometry of effectors; format: cell-based, murine; conditions: 3 μM, 30 min
# Protocol: as §1, §2
smiles,measurement,setting,value
"OC1(c2ccccn2)N=C(Nc2nc3ccccc3[nH]2)N=C1c1ccccn1 (stereo not shown) [IODVA1, (Z)-2-((1H-benzo[d]imidazol-2-yl)imino)-4,5-di(pyridin-2-yl)-2,5-dihydro-1H-imidazol-5-ol]",increase in survival over control group (average),p190-BCR-ABL leukemia; 0.25 mM in subcutaneous osmotic pumps,10 days
same,survival during therapy,"p190-BCR-ABL leukemia; 0.5 imatinib, 0.5 IODVA1, 0.25 IODVA1+0.5 mM imatinib, osmotic pumps, 4 weeks",alive for the 4-week duration of the therapy
same,residual p190-BCR-ABL expressing leukemic progenitor B-cells (EGFP+/B220+) in peripheral blood,"p190-BCR-ABL leukemia; mouse, in vivo",decreased
same,changes in cell area,T47D cells,No changes
same,decrease in the phosphorylation levels of effectors,[1],but not empty vector-expressing cells
same,phosphorylation levels of AKT,[2]; regardless of BCR-ABL status,did not affect
same,decrease in phosphorylation level of PAK,[2]; p=0.004,6.1 fold
same,decrease in phosphorylation level of 4EBP,[2]; p=0.009,3.0 fold
same,decrease in phosphorylation level of JNK,[2]; p=0.015,1.8 fold
same,decrease in phosphorylation level of S6,[2]; p=0.05,1.5 fold

# — patent publication US11564913B2, “Compositions and methods for treating cancer” (Children's Hospital Medical Center, priority 2019, dated 2023)
